Source: patent US20120183493A1, “NOVEL POLYMERS” (PharmaPatents Global Ltd., priority 2009, published 2012)
Where two headings read alike, the source gives them in different places.

Assays:
[1] = test system: experimental hepatic fibrosis; details: rats; cited from earlier work
[2] = test system: fibroblasts from human hypertrophic scars; details: cited from earlier work; for proliferation of fibroblasts derived from hypertrophic scars: compound alone; for effect on AT II-stimulated increase in DNA synthesis: cultured fibroblasts, stimulation with AT II
[3] = test system: dermal healing; details: by reducing fibrosis and improving collagen remodelling; cited from earlier work
[4] = test system: guinea pig gingival fibroblast cells; details: cited from earlier work
[5] = Solubility of the purified solid in organic solvents; format: physicochemical
Experimental: (§1) 4 g of captopril in 15 ml of toluene with 0.5 g of Novozyme lipase B from Candida antartica was stirred in a 100 ml round bottom flask fitted with a drying tube (containing 3 Å molecular sieves and indicator silica gel) for 48 hours at 110° C. using a hotplate and magnetic stirrer. 50 ml of THF was then added and the enzyme was removed by filtration.
as §1, with “captopril lactone” for “captopril”

[6] = test system: hypertrophied scars; details: topical application, animal model of pathologic scarring; cited from earlier work
[7] = test system: keloid scar; details: cited from earlier work
[8] = phenytoin- or nifedipine-induced gingival fibroblasts

CCCCC(=O)N(Cc1ccc(-c2ccccc2-c2nnn[nH]2)cc1)[C@H](C(=O)O)C(C)C [valsartan]
progression of experimental hepatic fibrosis [1]: ameliorate progression
proliferation of fibroblasts derived from hypertrophic scars [2]: did not influence
effect on AT II-stimulated increase in DNA synthesis [2]: inhibited

CCC[C@H](N[C@@H](C)C(=O)N1[C@H](C(=O)O)C[C@@H]2CCCC[C@@H]21)C(=O)OCC [perindopril]
progression of experimental hepatic fibrosis [1]: ameliorate progression

Ang(1-7): angiotensin peptide Ang(1-7) (DRVYIHP; Angiotensin 1-7; UniProt P01019 25-31, looked up, fragment)
dermal healing following wounding [3]: accelerate dermal healing

Cc1cc(Cn2cnc3c2C[C@@H](C(=O)O)N(C(=O)C(c2ccccc2)c2ccccc2)C3)ccc1N(C)C [PD123319]
proliferation of fibroblasts derived from hypertrophic scars [2]: did not influence
effect on AT II-stimulated increase in DNA synthesis [2]: augmented

O=C1NC(=O)C(c2ccccc2)(c2ccccc2)N1 [phenyloin]
proliferation of gingival fibroblast cells ([4]; guinea pig gingival fibroblast cells): induced proliferation

C[C@@H]1CSC(=O)[C@@H]2CCCN2C1=O [captopril lactone]
solubility in THF [5]: freely soluble
solubility in chloroform [5]: freely soluble
solubility in methanol [5]: freely soluble

C[C@H](CS)C(=O)N1CCC[C@H]1C(=O)O [captopril]
solubility in THF [5]: freely soluble
solubility in chloroform [5]: freely soluble
solubility in methanol [5]: freely soluble
development of induced proliferation [4, 8]: inhibited the development of proliferation
immunostaining intensities of immunoreactive angiotensin II [4, 8]: reduced these enhanced immunostaining intensities to control levels
formation of hypertrophied scars [6]: prevented the formation of hypertrophied scars

CCOC(=O)[C@H](CCc1ccccc1)N[C@@H](C)C(=O)N1CCC[C@H]1C(=O)O [enalapril]
keloid scar outcome ([7]; first patient (co-author), 10 mg once daily): rapidly improved
keloid scar outcome ([7]; person with diabetes, same low dose, after six months of therapy): marked improvement
